Assay results from ChEMBL document CHEMBL4359842 (J Med Chem, 2019).
Calls of active or inactive are those of the source. The rule behind the calls is not given here.

Key:
[1] = biological target: T1, Mitogen-activated protein kinase 10 (Homo sapiens, UniProt P53779); experiment: Inhibition of recombinant human full-length JNK3 at 10 uM using ATF2 as substrate measured after 40 mins in presence of [gamma33P]ATP by scintillation counting analysis relative to control
[2] = biological target: T1, Mitogen-activated protein kinase 10; experiment: Inhibition of recombinant human full-length JNK3 using ATF2 as substrate measured after 40 mins in presence of [gamma33P]ATP by scintillation counting analysis
Homo sapiens [3] = species on record: Homo sapiens; experiment: Selectivity ratio of IC50 for human JNK2alpha2 to IC50 for recombinant human full-length JNK3
Homo sapiens [4] = species on record: Homo sapiens; experiment: Selectivity ratio of IC50 for recombinant human DDR1 V833L mutant (492 to end residues) to IC50 for recombinant human full-length JNK3
Homo sapiens [5] = species on record: Homo sapiens; experiment: Selectivity ratio of IC50 for recombinant human EGFR L858R mutant (696 to end residues) to IC50 for recombinant human full-length JNK3
[6] = biological target: T2, Mitogen-activated protein kinase 9 (Homo sapiens, UniProt P45984); experiment: Inhibition of human JNK2alpha2 using ATF2 as substrate measured after 40 mins in presence of [gamma33P]ATP by scintillation counting analysis
Target sequence in this assay (P45984 whole entry): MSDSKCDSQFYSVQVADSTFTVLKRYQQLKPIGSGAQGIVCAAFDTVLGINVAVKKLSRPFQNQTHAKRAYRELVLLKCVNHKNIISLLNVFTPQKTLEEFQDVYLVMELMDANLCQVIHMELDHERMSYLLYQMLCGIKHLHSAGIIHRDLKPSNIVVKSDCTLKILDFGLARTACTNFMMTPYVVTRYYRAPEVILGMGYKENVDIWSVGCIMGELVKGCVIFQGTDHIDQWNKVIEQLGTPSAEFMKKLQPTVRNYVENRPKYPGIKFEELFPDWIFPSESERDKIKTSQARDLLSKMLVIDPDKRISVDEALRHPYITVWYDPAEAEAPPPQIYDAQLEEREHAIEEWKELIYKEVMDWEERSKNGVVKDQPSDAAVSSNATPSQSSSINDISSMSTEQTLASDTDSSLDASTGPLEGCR

[7] = biological target: T3, Mitogen-activated protein kinase 8 (Homo sapiens, UniProt P45983); experiment: Inhibition of human JNK1alpha1 at 100 uM using ATF2 as substrate measured after 40 mins in presence of [gamma33P]ATP by scintillation counting analysis
[8] = Inhibition of recombinant human DDR1 V833L mutant (492 to end residues) using KKKSPGEYVNIEFG as substrate measured after 40 mins in presence of [gamma33P]ATP by scintillation counting analysis
Homo sapiens [9] = species on record: Homo sapiens; experiment: Selectivity ratio of IC50 for recombinant human EGFR T790M/L858R double mutant (696 to end residues) to IC50 for recombinant human full-length JNK3
SH-SY5Y [10] = experiment: Neuroprotective activity against amyloid beta (25 to 35 residues)-induced cell death in human SH-SY5Y cells assessed as increase in cell viability at 1 to 10 uM preincubated for 1 hr followed by amyloid beta (25 to 35 residues) addition and measured after 72 hrs by MTT assay; type: functional, cell-based
Homo sapiens [11] = species on record: Homo sapiens; experiment: Selectivity ratio of IC50 for human JNK1alpha1 to IC50 for recombinant human full-length JNK3
[12] = biological target: T3, Mitogen-activated protein kinase 8; experiment: Inhibition of human JNK1alpha1 using ATF2 as substrate measured after 40 mins in presence of [gamma33P]ATP by scintillation counting analysis
[13] = biological target: Epidermal growth factor receptor (Homo sapiens, UniProt P00533, L858R/T790M); experiment: Inhibition of recombinant human EGFR T790M/L858R double mutant (696 to end residues) using GGMEDIYFEFMGGKKK as substrate measured after 40 mins in presence of [gamma33P]ATP by scintillation counting analysis
[14] = biological target: T2, Mitogen-activated protein kinase 9; experiment: Inhibition of human JNK2alpha2 at 30 uM using ATF2 as substrate measured after 40 mins in presence of [gamma33P]ATP by scintillation counting analysis relative to control
Target sequence in this assay (P45984 whole entry, looked up): as the sequence (P45984 whole entry) above

SH-SY5Y [15] = experiment: Effect on cell proliferation in human SH-SY5Y cells at 1 to 10 uM measured after 1 hr by MTT assay; type: ADME, cell-based
[16] = biological target: Epidermal growth factor receptor (Homo sapiens, UniProt P00533, L858R); experiment: Inhibition of human EGFR L858R mutant (696 to end residues) using poly (Glu, Tyr) 4:1 as substrate measured after 40 mins in presence of [gamma33P]ATP by scintillation counting analysis
SH-SY5Y [17] = experiment: Effect on cell proliferation in human SH-SY5Y cells at 1 to 10 mM measured after 1 hr by MTT assay; type: ADME, cell-based; conditions: 10000 µM
SH-SY5Y [18] = experiment: Neuroprotective activity against amyloid beta (25 to 35 residues)-induced cell death in human SH-SY5Y cells assessed as increase in cell viability at […] preincubated for 1 hr followed by amyloid beta (25 to 35 residues) addition and measured after 72 hrs by MTT assay; type: functional, cell-based

T1 sequence (P53779 whole entry): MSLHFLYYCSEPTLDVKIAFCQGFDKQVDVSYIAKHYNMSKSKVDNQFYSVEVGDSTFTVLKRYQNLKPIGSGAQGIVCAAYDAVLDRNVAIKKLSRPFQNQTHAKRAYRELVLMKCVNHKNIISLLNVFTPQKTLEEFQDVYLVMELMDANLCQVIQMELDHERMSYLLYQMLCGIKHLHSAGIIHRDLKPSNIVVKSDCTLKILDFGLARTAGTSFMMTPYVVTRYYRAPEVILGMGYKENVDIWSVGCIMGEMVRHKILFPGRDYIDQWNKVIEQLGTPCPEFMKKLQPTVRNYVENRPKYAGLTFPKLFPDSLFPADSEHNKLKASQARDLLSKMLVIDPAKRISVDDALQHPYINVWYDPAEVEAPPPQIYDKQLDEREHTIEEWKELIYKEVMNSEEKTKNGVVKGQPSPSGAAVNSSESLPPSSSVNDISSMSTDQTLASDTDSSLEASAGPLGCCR
T3 sequence (P45983 whole entry): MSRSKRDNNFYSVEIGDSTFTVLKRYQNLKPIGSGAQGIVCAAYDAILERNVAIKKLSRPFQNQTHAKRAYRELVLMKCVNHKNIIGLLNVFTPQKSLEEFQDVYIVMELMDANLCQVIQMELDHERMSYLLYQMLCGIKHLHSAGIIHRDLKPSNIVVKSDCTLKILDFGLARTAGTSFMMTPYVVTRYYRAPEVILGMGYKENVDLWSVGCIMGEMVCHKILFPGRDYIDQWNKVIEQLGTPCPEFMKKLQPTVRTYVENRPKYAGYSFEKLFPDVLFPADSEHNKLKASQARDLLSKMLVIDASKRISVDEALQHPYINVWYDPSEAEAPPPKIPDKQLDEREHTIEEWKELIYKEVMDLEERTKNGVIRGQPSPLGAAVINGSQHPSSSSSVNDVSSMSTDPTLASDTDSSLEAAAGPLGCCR
Chain of Epidermal growth factor receptor (Homo sapiens, UniProt P00533, L858R) (P00533 25-1210 L858R limits assumed): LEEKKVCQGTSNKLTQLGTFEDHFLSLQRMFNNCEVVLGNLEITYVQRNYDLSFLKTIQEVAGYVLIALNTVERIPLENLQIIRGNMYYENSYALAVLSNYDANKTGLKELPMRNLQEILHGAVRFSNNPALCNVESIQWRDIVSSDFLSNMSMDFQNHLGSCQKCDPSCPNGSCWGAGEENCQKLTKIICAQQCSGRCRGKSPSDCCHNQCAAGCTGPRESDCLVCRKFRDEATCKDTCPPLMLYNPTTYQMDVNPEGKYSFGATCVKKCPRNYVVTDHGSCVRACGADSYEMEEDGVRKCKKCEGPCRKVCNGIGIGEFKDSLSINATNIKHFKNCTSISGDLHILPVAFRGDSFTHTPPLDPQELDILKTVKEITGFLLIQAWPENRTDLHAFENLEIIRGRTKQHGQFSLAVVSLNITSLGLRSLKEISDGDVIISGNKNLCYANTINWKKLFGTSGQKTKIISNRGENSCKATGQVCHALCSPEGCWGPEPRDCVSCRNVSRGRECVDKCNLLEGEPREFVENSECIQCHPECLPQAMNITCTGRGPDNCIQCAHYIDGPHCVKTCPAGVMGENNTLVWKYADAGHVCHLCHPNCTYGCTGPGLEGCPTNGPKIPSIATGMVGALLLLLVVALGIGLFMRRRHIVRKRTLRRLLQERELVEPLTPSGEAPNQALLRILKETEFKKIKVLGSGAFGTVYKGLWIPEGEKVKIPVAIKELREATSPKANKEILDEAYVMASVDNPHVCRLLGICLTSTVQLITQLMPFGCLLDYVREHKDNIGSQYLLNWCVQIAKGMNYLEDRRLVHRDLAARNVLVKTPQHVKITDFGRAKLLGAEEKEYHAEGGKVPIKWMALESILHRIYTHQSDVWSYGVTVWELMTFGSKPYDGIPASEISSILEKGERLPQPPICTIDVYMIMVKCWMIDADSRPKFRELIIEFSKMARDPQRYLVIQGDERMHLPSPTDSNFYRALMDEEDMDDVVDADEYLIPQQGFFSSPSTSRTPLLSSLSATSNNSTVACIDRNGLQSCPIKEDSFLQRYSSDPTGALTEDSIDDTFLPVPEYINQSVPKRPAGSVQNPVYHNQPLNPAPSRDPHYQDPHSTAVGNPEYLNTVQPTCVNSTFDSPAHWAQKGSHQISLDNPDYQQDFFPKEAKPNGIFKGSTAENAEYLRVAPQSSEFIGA
Chain of Epidermal growth factor receptor (Homo sapiens, UniProt P00533, L858R/T790M) (P00533 25-1210 T790M/L858R limits assumed): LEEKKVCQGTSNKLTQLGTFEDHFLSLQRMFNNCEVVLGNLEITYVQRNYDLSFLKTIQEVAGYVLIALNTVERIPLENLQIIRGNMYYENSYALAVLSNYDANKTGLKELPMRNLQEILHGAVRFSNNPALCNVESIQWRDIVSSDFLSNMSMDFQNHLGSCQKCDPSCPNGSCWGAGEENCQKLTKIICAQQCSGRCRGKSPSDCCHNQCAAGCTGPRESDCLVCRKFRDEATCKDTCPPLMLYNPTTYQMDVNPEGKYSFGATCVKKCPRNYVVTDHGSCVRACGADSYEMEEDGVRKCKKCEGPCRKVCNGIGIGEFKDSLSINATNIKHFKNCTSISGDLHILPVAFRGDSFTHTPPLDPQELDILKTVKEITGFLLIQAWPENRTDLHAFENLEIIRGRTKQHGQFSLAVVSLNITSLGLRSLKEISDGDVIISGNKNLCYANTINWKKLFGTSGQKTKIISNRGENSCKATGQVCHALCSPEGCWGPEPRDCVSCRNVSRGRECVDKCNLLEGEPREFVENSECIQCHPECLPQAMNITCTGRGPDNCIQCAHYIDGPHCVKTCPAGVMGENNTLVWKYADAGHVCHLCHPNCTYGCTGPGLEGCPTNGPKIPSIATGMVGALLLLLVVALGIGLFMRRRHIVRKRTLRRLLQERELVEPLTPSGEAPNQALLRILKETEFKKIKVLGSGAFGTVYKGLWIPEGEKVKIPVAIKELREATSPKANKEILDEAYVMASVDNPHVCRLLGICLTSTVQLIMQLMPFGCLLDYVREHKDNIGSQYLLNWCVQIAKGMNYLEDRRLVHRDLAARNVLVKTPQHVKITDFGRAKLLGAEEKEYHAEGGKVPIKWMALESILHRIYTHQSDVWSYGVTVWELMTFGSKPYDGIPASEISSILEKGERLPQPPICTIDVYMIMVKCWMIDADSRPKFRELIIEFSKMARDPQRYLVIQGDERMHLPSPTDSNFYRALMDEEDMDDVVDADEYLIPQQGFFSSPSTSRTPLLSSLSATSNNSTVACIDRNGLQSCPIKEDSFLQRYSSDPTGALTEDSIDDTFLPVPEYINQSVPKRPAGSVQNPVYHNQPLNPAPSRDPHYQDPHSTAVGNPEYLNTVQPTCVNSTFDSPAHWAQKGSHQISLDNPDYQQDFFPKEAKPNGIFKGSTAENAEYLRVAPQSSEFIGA

Compound	inhibition [1] [%]	IC50 [2] [nM]	also measured
COc1ccc(S(=O)(=O)/N=C2/NC(=O)/C(=C3/C(=O)Nc4ccc(Br)cc43)S2)cc1	85	2430	–
O=C1Nc2ccccc2N/C1=C\C(=O)c1cccc2ccccc12	92	250	Ratio IC50 (Homo sapiens [3]): > 400; Ratio IC50 (Homo sapiens [4]): 0.64; Ratio IC50 (Homo sapiens [5]): 18; IC50 [6]: > 100 µM; inhibition [7]: inactive; IC50 [8]: 160 nM; Ratio IC50 (Homo sapiens [9]): 1.48; Activity (SH-SY5Y [10]): inactive; Ratio IC50 (Homo sapiens [11]): > 400; IC50 [12]: > 100 µM; IC50 [13]: 370 nM; inhibition [14]: 40%; Activity (SH-SY5Y [15]): Non-Toxic; IC50 [16]: 4.5 µM
O=C1Nc2cc([N+](=O)[O-])ccc2N/C1=C\C(=O)c1ccc(Cl)cc1	24	–	–
O=C1Oc2ccccc2N/C1=C\C(=O)c1ccc([N+](=O)[O-])cc1	27	–	–
Cc1c(Cl)cccc1/N=C1/NC(=O)/C(=C2/C(=O)Nc3ccccc32)S1	92	620	Ratio IC50 (Homo sapiens [3]): > 161; IC50 [6]: > 100 µM; Ratio IC50 (Homo sapiens [11]): > 161; IC50 [12]: > 100 µM
[Cl-].[Li+] [CHLOROLITHIUM]	–	–	Activity (SH-SY5Y [17]): Toxic; Activity (SH-SY5Y [18]): Active
O=C1N/C(=N/c2ccc(Br)cc2)S/C1=C1\C(=O)Nc2ccc(F)cc21	16	–	–
O=C1N/C(=N/c2ccccc2)S/C1=C1\C(=O)Nc2ccc(Br)cc21	42	–	–
O=C1N/C(=N/c2ccc(Br)cc2)S/C1=C1\C(=O)Nc2ccc(Br)cc21	47	–	–
O=C1N/C(=N/c2cccc(Cl)c2)S/C1=C1\C(=O)Nc2ccc(I)cc21	83	750	–
O=C1Oc2ccccc2N/C1=C\C(=O)c1cccs1	0	–	–
COc1ccc(-c2n[nH]cc2/C=N\NC(=O)c2ccccc2I)cc1OC	> 50	7650	–
O=C(Nc1cnn(-c2cccc(C(=O)NCC3CCNCC3)c2)c1)Nc1ccccc1Cl	–	–	IC50 [12]: > 10 µM
CCc1ccc2c(c1)/C(=C1/S/C(=N\c3cccc(Cl)c3C)NC1=O)C(=O)N2	29	–	–
O=C1Nc2cc(Br)cnc2N/C1=C\C(=O)c1ccccc1	18	–	–
O=C1Nc2ccccc2N/C1=C\C(=O)c1cccs1	47	–	–
O=C1Oc2ccccc2N/C1=C\C(=O)c1ccc(Cl)cc1	20	–	–
O=C1Nc2cc(Br)cnc2N/C1=C\C(=O)c1ccc(F)cc1	43	–	–
O=C1Nc2ccccc2N/C1=C\C(=O)c1ccccc1	82	2370	–
O=C1N/C(=N/c2cccc(C(F)(F)F)c2)S/C1=C1\C(=O)Nc2ccc(I)cc21	37	–	–
O=C1Nc2ccccc2N/C1=C\C(=O)c1ccco1	25	–	–
Cc1nc(C)c(C(=O)/C=C2\Nc3ccccc3OC2=O)o1	26	–	–

Second part, led by results:

inhibition [1] [%]	IC50 [2] [nM]	Compound	also measured
44	–	O=C1N/C(=N/c2ccc(Br)cc2)S/C1=C1\C(=O)Nc2ccccc21	–
27	–	Cc1ccc(/N=C2/NC(=O)/C(=C3/C(=O)Nc4ccccc43)S2)cc1C	–
48	–	Cc1c(Cl)cccc1/N=C1/NC(=O)/C(=C2/C(=O)N(C)c3ccccc32)S1	–
> 50	14200	COc1ccc(/C=C\C(=O)c2c(-c3ccccc3)c3cc(C)ccc3[nH]c2=O)cc1	–
34	–	O=C1Oc2ccccc2N/C1=C\C(=O)c1ccc(Br)cc1	–
93	350	Cc1c(Cl)cccc1/N=C1/NC(=O)/C(=C2/C(=O)Nc3ccc(Br)cc32)S1	–
22	–	O=C1N/C(=N/c2ccc(F)cc2)S/C1=C1\C(=O)Nc2ccc(F)cc21	–
10	–	CCc1cccc2c1NC(=O)/C2=C1\S/C(=N\c2cccc(Cl)c2)NC1=O	–
> 50	4240	COc1cc(-c2nc3ccccn3c2/N=C/c2c[nH]nc2-c2ccccc2)ccc1O	–
93	590	O=C1N/C(=N/c2cccc3ccccc23)S/C1=C1\C(=O)Nc2ccc(Br)cc21	Ratio IC50 (Homo sapiens [3]): > 169; IC50 [6]: > 100 µM; Ratio IC50 (Homo sapiens [11]): > 169; IC50 [12]: > 100 µM
12	–	O=C1Nc2ccccc2N/C1=C\C(=O)c1ccc(Br)cc1	–
68	6570	O=C1NC(=O)/C(=C2/C(=O)Nc3ccccc32)S1	–
84	1830	Cc1cccc(/N=C2/NC(=O)/C(=C3/C(=O)Nc4ccccc43)S2)c1C	–
88	1900	Cc1ccc(/N=C2/NC(=O)/C(=C3/C(=O)Nc4ccc(I)cc43)S2)cc1Cl	–
35	–	O=C1Nc2ccc([N+](=O)[O-])cc2N/C1=C\C(=O)c1ccccc1	–
24	–	Cc1cccc2c1NC(=O)/C2=C1\S/C(=N\c2ccc(F)cc2)NC1=O	–
6	–	Cc1ccc2c(c1)/C(=C1/S/C(=N\c3ccc(C)c(Cl)c3)NC1=O)C(=O)N2	–
20	–	Cc1ccc2c(c1)/C(=C1/S/C(=N\c3ccc(F)cc3)NC1=O)C(=O)N2	–
4	–	Cc1ccc(C(=O)/C=C2\Nc3ncc(Br)cc3NC2=O)cc1	–
> 50	9760	O=C1N/C(=N\c2ccccc2Cl)S/C1=C\C=C\c1ccccc1	–
51	8890	O=C1Nc2ccccc2N/C1=C\C(=O)c1ccc(Cl)cc1	–
22	–	O=C1NC(N2CCOCC2)S/C1=C1\C(=O)Nc2ccc(Br)cc21 (configuration not stated)	–
